Data published in patent US6767569B1, “Surface decontamination of cooked sausage and processed meat and poultry products” (priority 1999, dated 2004).
“And” between values parts separate entries of the source, which are not always exact repeats. Equal entries are not always repeated. Marks after values point to notes of the source that are not given here.

Tested on: Listeria monocytogenes
Assay: Dip treatment of Listeria monocytogenes-inoculated frankfurters, quantitative plating on MOX agar
Type: cell-based
Protocol: A five-strain mixture of Listeria monocytogenes was used for purposes of inoculation. To prepare this mixture, five strains of L. monocytogenes were grown individually in tryptic soy broth (TSB), for 48±2 h at 30° C. Equivalent aliquots of broth from each strain were then combined in a sterile test tube to achieve a mixed inoculum containing approximately equal populations of each of the five strains. The mixed culture was diluted as appropriate using 0.1% peptone diluent to achieve a final mixed inoculum with a cell density of approximately 10,000 colony forming units (cfu)/ml.
Packages of commercially prepared beef frankfurter sausages (“franks”) were obtained from a local retail outlet. The packages were stored at 4° C. until use (no more than 24 hours). Immediately prior to testing, the franks were removed from the commercial packaging and placed on a sterile surface in a biological safety cabinet. The franks were oriented on the surface such that no franks were in contact with each other. Using a micropipette, each individual frank (except for those used as controls) was inoculated with 0.1 ml of the previously prepared mixed inoculum with a target inoculation level of 1,000 cfu/frank. A sterile bent rod was used to spread the inoculum over the frank surface as evenly as possible. Inoculated franks were allowed to remain undisturbed on the sterile surface for at least 5 minutes prior to treatment with the decontaminant solution. Three franks were inoculated per treatment to be evaluated, one frank being tested without inoculation.
The peracetic acid used in the evaluation was obtained as a 35% concentrate under the trade name STERIS 20™ Sterilant Concentrate from STERIS Corporation (Mentor, Ohio). The concentrate was used without the buffers or other additives supplied by the manufacturer. The concentrate was diluted to appropriate nominal concentrations (100, 500, and 1000 ppm). Approximately 1 L of each concentration to be evaluated was prepared in sanitized 2 L, plastic containers. Additionally, 1 L of a control treatment, namely sterile distilled water (0 ppm peracetic acid), was also prepared in a 2 L container. Each of these four concentrations was evaluated using two exposure times, 2 and 10 seconds. Therefore, a total of eight treatments (four peracetic acid concentrations (0, 100, 500, and 1000 ppm) at two exposure times (2 and 10 seconds) were evaluated in this study. Each test was carried out two or more times for establishing reproducibility.
All peracetic acid treatments were performed inside a biological safety cabinet. Inoculated franks were dipped into the peracetic acid treatment solution (or distilled water for the 0 ppm samples) and allowed to remain submerged for either 2 or 10 seconds. Sterile utensils were employed to remove the franks from the treatment solution and transfer them to a sterile distilled water rinse. Franks were then submerged in a sterile water rinse and remained submerged for 2 or 10 seconds (i.e., the same time as they were exposed to the peracetic acid solution) and were removed with sterile utensils. Immediately after removal from the sterile water rinse, the franks were placed on a sterile surface and allowed to air dry for 5 minutes.
Following air drying, one frank per treatment was placed in a sterile Stomacher bag and analyzed quantitatively for residual L. monocytogenes populations. The remaining two franks were retained in sterile Stomacher bags and used for qualitative analysis, if necessary (in the event no surviving cells were detected using quantitative procedures).
To determine the number of surviving L. monocytogenes cells (quantitative evaluation), one frank per treatment was analyzed. The weight of the frank was determined and an appropriate volume of 0.1% peptone diluent added to achieve a 1:5 dilution. These samples were homogenized for 2 minutes using a Stomacher Lab Blender. […]

## CC(=O)OO [peracetic acid]
PAA 100 ppm (actual 114 ppm), 2 sec exposure followed by 2 sec deionized water rinse
  After treatment (CFU/frank): 180 CFU/frank and <90* CFU/frank and 90 CFU/frank
PAA 100 ppm (actual 114 ppm), 2 sec exposure followed by 2 sec deionized water rinse, listed as PAA
  After treatment (CFU/frank): at least 90 CFU/frank
PAA 100 ppm (actual 114 ppm), 10 sec exposure followed by 10 sec deionized water rinse, target inoculation 1,000 CFU/frank
  After treatment (CFU/frank): <90* CFU/frank and 180 CFU/frank
PAA 100 ppm (actual 114 ppm), 10 sec exposure followed by 10 sec deionized water rinse, target inoculation 1,000 CFU/frank, listed as PAA
  After treatment (CFU/frank): at least 90 CFU/frank
PAA 500 ppm (actual 572 ppm), 2 sec exposure followed by 2 sec deionized water rinse
  After treatment (CFU/frank): <90* CFU/frank and 90 CFU/frank
PAA 500 ppm (actual 572 ppm), 2 sec exposure followed by 2 sec deionized water rinse, listed as PAA
  After treatment (CFU/frank): < 90 CFU/frank
PAA 500 ppm (actual 572 ppm), 10 sec exposure followed by 10 sec deionized water rinse
  After treatment (CFU/frank): <90* CFU/frank
PAA 500 ppm (actual 572 ppm), 10 sec exposure followed by 10 sec deionized water rinse, listed as PAA
  After treatment (CFU/frank): less than the detection limit of the quantitative plating procedure
PAA 1000 ppm (actual 1146 ppm), 2 sec exposure followed by 2 sec deionized water rinse
  After treatment (CFU/frank): <90* CFU/frank
PAA 1000 ppm (actual 1146 ppm), 2 sec exposure followed by 2 sec deionized water rinse, listed as PAA
  After treatment (CFU/frank): < 90 CFU/frank
PAA 1000 ppm (actual 1146 ppm), 10 sec exposure followed by 10 sec deionized water rinse
  After treatment (CFU/frank): <90* CFU/frank
PAA 1000 ppm (actual 1146 ppm), 10 sec exposure followed by 10 sec deionized water rinse, listed as PAA
  After treatment (CFU/frank): < 90 CFU/frank
